According to PMC10252594 (Cancers, 2023):
Where “and” joins values, the source holds several entries; their conditions need not be identical. Identical values can stand only once. Like-named read-outs stand apart in the source and are kept apart here.

Tests used:
[1] = Dosage of RM-581 in tumors and plasma (LC-MS/MS); format: in vivo, mice; conditions: for RM-581 in Plasma / RM-581 in Tumor / concentration at 3 h: 3 h after last treatment; for concentration at 3 h / Kp at 3 h: nude, mouse; for Kp at 3 h: tumor/plasma, ng/g = ng/mL assumed, read-out: Concentration Index (Tumor/Plasma)
Procedure: The mice were weighed at the start and end of the protocol. Tumor area (mm^2) was calculated twice a week using two perpendicular diameters (L and W), which were recorded using a caliper, and the formula L/2 × W/2 × π. The area measured on the first day of treatment was fixed at 100%. At the end of the studies and 3 h after the last treatment, the mice were terminally anesthetized, and their final body weights were measured. Tumors, liver, kidney, and total prostate were collected from mice during necropsy, while blood was collected by cardiac puncture. Tissues and plasma were immediately frozen at −80 °C until analysis.

LAPC-4 xenografts = experiment: Fatty acid determination (GC-FID) in LAPC-4 xenograft experiment; format: in vivo, mice; conditions: 10 mg/kg PO
Procedure: […] The fatty acid profile was next determined by gas chromatography (GC), coupled with a flame ionization detector (FID), using phosphatidylcholine C21:0 (Avanti Polar Lipids) as an internal standard. The GC model 5890 was from Agilent Technologies (Mississauga, ON, Canada). The capillary column used was a HP-88 (100 m × 0.25 mm, […], Agilent Technologies), and the carrier gas was helium at 1.5 mL/min. A total of 56 fatty acids were identified according to their retention time, using fatty acid mixtures as standards.

[2] = LAPC-4 tumor, 28 days (RM-581 group per Table S1)
[3] = LAPC-4 tumor, 28 days, Table S1

With `C#C[C@]1(O)CC[C@H]2[C@@H]3CCc4cc(OC)c(N5CCN(C(=O)[C@@H]6CCCN6C(=O)c6ccc7ccccc7n6)CC5)cc4[C@H]3CC[C@@]21C` [RM-581] the “RM-581 in Plasma” value ([1]; 3 mg/kg PO) was 15 ng/mL and 0.023 µM, the “RM-581 in Tumor” value ([1]; 3 mg/kg PO) was 50 ng/g and 0.077 µM and the “RM-581 in Plasma” value ([1]; 10 mg/kg PO) was 30 ng/mL and 0.046 µM. For the same molecule, the “RM-581 in Tumor” value ([1]; 10 mg/kg PO) was 300 ng/g and 0.464 µM, the “RM-581 in Plasma” value ([1]; 30 mg/kg PO) was 171 ng/mL and 0.265 µM and the “RM-581 in Tumor” value ([1]; 30 mg/kg PO) was 940 ng/g and 1.465 µM. It also gave a concentration at 3 h ([1]; plasma, 30 mg/kg PO, read-out: RM-581 in Plasma) of 171 ng/mL, a concentration at 3 h ([1]; plasma, PO, read-out: RM-581 in Plasma) of 15 ng/mL and a Kp at 3 h ([1]; 3 mg/kg PO) of 3.3. The Kp at 3 h ([1]; 10 mg/kg PO) was 10, the Kp at 3 h ([1]; 30 mg/kg PO) was 5.5 and the concentration at 3 h ([1]; tumor, 30 mg/kg PO, read-out: RM-581 in Tumor) was 940 ng/g. The concentration at 3 h ([1]; tumor, PO, read-out: RM-581 in Tumor) was 50 ng/g, the “S-FA, liver” value (LAPC-4 xenografts; 28 days) was 12.5 mg/g and the “S-FA, plasma” value (LAPC-4 xenografts; 28 days) was 1.10 µg/mL. The “S-FA, plasma, % vs CTL” value (LAPC-4 xenografts; 28 days) was “+2.8%”, the “S-FA, tumor” value (LAPC-4 xenografts; 28 days) was 8.15 mg/g and the “T-FA, liver” value (LAPC-4 xenografts; 28 days) was 34.5 mg/g. For the same molecule, the “T-FA, liver, % vs CTL” value (LAPC-4 xenografts; 28 days) was “+19.8%”, the “T-FA, plasma” value (LAPC-4 xenografts; 28 days) was 3.71 µg/mL and the “T-FA, plasma, % vs CTL” value (LAPC-4 xenografts; 28 days) was “+1.6%”. For the same molecule, the “T-FA, tumor” value (LAPC-4 xenografts; 28 days) was 24.5 mg/g, the “U-FA, liver” value (LAPC-4 xenografts; 28 days) was 21.9 mg/g and the “U-FA, plasma” value (LAPC-4 xenografts; 28 days) was 2.59 µg/mL. For the same molecule, the “U-FA, plasma, % vs CTL” value (LAPC-4 xenografts; 28 days) was “+1.6%”, the “U-FA, tumor” value (LAPC-4 xenografts; 28 days) was 16.0 mg/g and the “Adrenic acid-1 (7c10c13c16c) 22:4, % vs CTL” value (LAPC-4 xenografts; LAPC-4 tumor, 28 days) was “+8.6%”. The “Adrenic acid-1 (7c10c13c16c) 22:4, FA RM-581” value (LAPC-4 xenografts; LAPC-4 tumor, 28 days) was 0.380 mg/g, the “Adrenic acid-2 (4c7c10c13c16c) 22:5, % vs CTL” value (LAPC-4 xenografts; LAPC-4 tumor, 28 days) was −12% and the “Adrenic acid-2 (4c7c10c13c16c) 22:5, FA RM-581” value (LAPC-4 xenografts; LAPC-4 tumor, 28 days) was 0.260 mg/g. For the same molecule, the “Alpha-linolenic acid (9c12c15c) 18:3, FA RM-581” value (LAPC-4 xenografts; LAPC-4 tumor, 28 days) was 0.230 mg/g, the “Arachidonic (5c8c11c14c) 20:4, % vs CTL” value (LAPC-4 xenografts; LAPC-4 tumor, 28 days) was −2.1% and the “Arachidonic (5c8c11c14c) 20:4, FA RM-581” value (LAPC-4 xenografts; LAPC-4 tumor, 28 days) was 2.150 mg/g. The “Cervonic acid 22:6, % vs CTL” value (LAPC-4 xenografts; LAPC-4 tumor, 28 days) was 0%, the “Cervonic acid 22:6, FA RM-581” value (LAPC-4 xenografts; LAPC-4 tumor, 28 days) was 0.530 mg/g and the “Dihomo-γ-linolenic acid (8c11c14c) 20:3, FA RM-581” value (LAPC-4 xenografts; LAPC-4 tumor, 28 days) was 0.580 mg/g. The “Dimethoxyhexadecanoic acid 16:0, % vs CTL” value (LAPC-4 xenografts; LAPC-4 tumor, 28 days) was 0%, the “Dimethoxyhexadecanoic acid 16:0, FA RM-581” value (LAPC-4 xenografts; LAPC-4 tumor, 28 days) was 0.170 mg/g and the “Docosapentaenoic acid (7c10c13c16c19c) 22:5, % vs CTL” value (LAPC-4 xenografts; LAPC-4 tumor, 28 days) was “+17%”. The “Docosapentaenoic acid (7c10c13c16c19c) 22:5, FA RM-581” value (LAPC-4 xenografts; LAPC-4 tumor, 28 days) was 0.140 mg/g, the “Lignoceric acid 24:0, % vs CTL” value (LAPC-4 xenografts; LAPC-4 tumor, 28 days) was “+23%” and the “Lignoceric acid 24:0, FA RM-581” value (LAPC-4 xenografts; LAPC-4 tumor, 28 days) was 0.160 mg/g. For the same molecule, the “Linoleic acid (9c12c) 18:2, FA RM-581” value (LAPC-4 xenografts; LAPC-4 tumor, 28 days) was 4.435 mg/g, the “Myristic acid 14:0, FA RM-581” value (LAPC-4 xenografts; LAPC-4 tumor, 28 days) was 0.275 mg/g and the “Nervonic acid (15c) 24:1, % vs CTL” value (LAPC-4 xenografts; LAPC-4 tumor, 28 days) was “+18%”. The “Nervonic acid (15c) 24:1, FA RM-581” value (LAPC-4 xenografts; LAPC-4 tumor, 28 days) was 0.130 mg/g, the “Oleic acid (9c) 18:1, FA RM-581” value (LAPC-4 xenografts; LAPC-4 tumor, 28 days) was 4.920 mg/g and the “Palmitic acid 16:0, FA RM-581” value (LAPC-4 xenografts; LAPC-4 tumor, 28 days) was 5.095 mg/g. The “Palmitoleic acid (9c) 16:1, FA RM-581” value (LAPC-4 xenografts; LAPC-4 tumor, 28 days) was 1.035 mg/g, the “Stearic acid 18:0, % vs CTL” value (LAPC-4 xenografts; LAPC-4 tumor, 28 days) was “+3.5%” and the “Stearic acid 18:0, FA RM-581” value (LAPC-4 xenografts; LAPC-4 tumor, 28 days) was 2.355 mg/g. The “Vaccenic acid (11c) 18:1, % vs CTL” value (LAPC-4 xenografts; LAPC-4 tumor, 28 days) was “+5.3%”, the “Vaccenic acid (11c) 18:1, FA RM-581” value (LAPC-4 xenografts; LAPC-4 tumor, 28 days) was 0.690 mg/g and the “Adrenic acid-1 (7c10c13c16c) 22:4, % of Total FA” value (LAPC-4 xenografts; [2]) was 1.54%. For the same molecule, the “Adrenic acid-2 (4c7c10c13c16c) 22:5, % of Total FA” value (LAPC-4 xenografts; [2]) was 1.07%, the “Alpha-linolenic acid (9c12c15c) 18:3, % of Total FA” value (LAPC-4 xenografts; [2]) was 0.94% and the “Arachidonic (5c8c11c14c) 20:4, % of Total FA” value (LAPC-4 xenografts; [2]) was 8.77%. The “Cervonic acid 22:6, % of Total FA” value (LAPC-4 xenografts; [2]) was 2.18%, the “Dihomo-γ-linolenic acid (8c11c14c) 20:3, % of Total FA” value (LAPC-4 xenografts; [2]) was 2.35% and the “Dimethoxyhexadecanoic acid 16:0, % of Total FA” value (LAPC-4 xenografts; [2]) was 0.68%. The “Docosapentaenoic acid (7c10c13c16c19c) 22:5, % of Total FA” value (LAPC-4 xenografts; [2]) was 0.57%, the “Lignoceric acid 24:0, % of Total FA” value (LAPC-4 xenografts; [2]) was 0.65% and the “Linoleic acid (9c12c) 18:2, % of Total FA” value (LAPC-4 xenografts; [2]) was 18.1%. The “Myristic acid 14:0, % of Total FA” value (LAPC-4 xenografts; [2]) was 1.12%, the “Nervonic acid (15c) 24:1, % of Total FA” value (LAPC-4 xenografts; [2]) was 0.52% and the “Oleic acid (9c) 18:1, % of Total FA” value (LAPC-4 xenografts; [2]) was 20.1%. For the same molecule, the “Palmitic acid 16:0, % of Total FA” value (LAPC-4 xenografts; [2]) was 20.8%, the “Palmitoleic acid (9c) 16:1, % of Total FA” value (LAPC-4 xenografts; [2]) was 4.23% and the “Stearic acid 18:0, % of Total FA” value (LAPC-4 xenografts; [2]) was 9.61%. The “Vaccenic acid (11c) 18:1, % of Total FA” value (LAPC-4 xenografts; [2]) was 2.82%, the “Arachidic acid 20:0, FA RM-581” value (LAPC-4 xenografts; [3]) was 0.05 mg/g and the “Arachidic acid 20:0, FA RM-581 % of total” value (LAPC-4 xenografts; [3]) was 0.20%. The “Behenic acid 22:0, FA RM-581” value (LAPC-4 xenografts; [3]) was 0.09 mg/g, the “Behenic acid 22:0, FA RM-581 % of total” value (LAPC-4 xenografts; [3]) was 0.35% and the “Caproic acid 10:0, FA RM-581” value (LAPC-4 xenografts; [3]) was 0 mg/g.
